Assay results reported in PubChem BioAssay AID2060489 (Molecular Pharmacology Branch, DTP, NCI, 2025).

Tested on: 922993-354-T-J3-PDC complex spheroids, viability
Assay: Anticancer human tumor 922993-354-T-J3-PDC patient-derived endometrial carcinoma cell line growth inhibition [GQUAD]
Conditions: for IC50: curve of first compound; for viability, T/C: stronger effect = lower value
Outline: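 Viability of tumor cells grown as complex spheroids with endothelial and stromal cells, exposed to drug combinations. Top concentration at or near clinical Cmax (else 10 microM), diluted in half-log increments.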
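Note: spheroids exposed to compounds for seven days.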
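Throughout, for viability, T/C: 100% = DMSO vehicle control viability.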

Question: Which results are given for `CC[C@@]1(O)C(=O)OCc2c1cc1n(c2=O)Cc2cc3c(CN(C)C)c(O)ccc3nc2-1` + Cc1cnc(CNC(=O)c2c(=O)c3ccc(N4CCCN(C)CC4)nc3n3c2sc2ccccc23)cn1?
Answer: IC50 (second compound 0.0316 µM): > 316 nM; IC50 (second compound 0.1 µM): 125 nM; IC50 (second compound 0.316 µM): 3.91 nM; IC50 (second compound 1 µM): 81.8 nM; IC50 (second compound 3.16 µM): 53 nM; IC50 (second compound 10 µM): < 0.999 nM; viability, T/C (second compound 0.0316 µM, first compound 0.000999 µM): 94.7%; viability, T/C (second compound 0.0316 µM, first compound 0.00316 µM): 86.6%; viability, T/C (second compound 0.0316 µM, first compound 0.00999 µM): 84%; viability, T/C (second compound 0.0316 µM, first compound 0.0316 µM): 86.9%; viability, T/C (second compound 0.0316 µM, first compound 0.0999 µM): 83.2%; viability, T/C (second compound 0.0316 µM, first compound 0.316 µM): 54.6%; viability, T/C (second compound 0.1 µM, first compound 0.000999 µM): 60.6%; viability, T/C (second compound 0.1 µM, first compound 0.00316 µM): 74.2%; viability, T/C (second compound 0.1 µM, first compound 0.00999 µM): 55.1%; viability, T/C (second compound 0.1 µM, first compound 0.0316 µM): 61%; viability, T/C (second compound 0.1 µM, first compound 0.0999 µM): 50.4%; viability, T/C (second compound 0.1 µM, first compound 0.316 µM): 42.7%; viability, T/C (second compound 0.316 µM, first compound 0.000999 µM): 58.6%; viability, T/C (second compound 0.316 µM, first compound 0.00316 µM): 53.5%; viability, T/C (second compound 0.316 µM, first compound 0.00999 µM): 46.7%; viability, T/C (second compound 0.316 µM, first compound 0.0316 µM): 37.5%; viability, T/C (second compound 0.316 µM, first compound 0.0999 µM): 41.1%; viability, T/C (second compound 0.316 µM, first compound 0.316 µM): 40.3%; viability, T/C (second compound 1 µM, first compound 0.000999 µM): 42.2%; viability, T/C (second compound 1 µM, first compound 0.00316 µM): 58.5%; viability, T/C (second compound 1 µM, first compound 0.00999 µM): 39.6%; viability, T/C (second compound 1 µM, first compound 0.0316 µM): 62.3%; viability, T/C (second compound 1 µM, first compound 0.0999 µM): 49.1%; viability, T/C (second compound 1 µM, first compound 0.316 µM): 36.2%; viability, T/C (second compound 3.16 µM, first compound 0.000999 µM): 52.1%; viability, T/C (second compound 3.16 µM, first compound 0.00316 µM): 54.9%; viability, T/C (second compound 3.16 µM, first compound 0.00999 µM): 63.4%; viability, T/C (second compound 3.16 µM, first compound 0.0316 µM): 42.5%; viability, T/C (second compound 3.16 µM, first compound 0.0999 µM): 49.2%; viability, T/C (second compound 3.16 µM, first compound 0.316 µM): 45.3%; viability, T/C (second compound 10 µM, first compound 0.000999 µM): 45.5%; viability, T/C (second compound 10 µM, first compound 0.00316 µM): 36.3%; viability, T/C (second compound 10 µM, first compound 0.00999 µM): 43.3%; viability, T/C (second compound 10 µM, first compound 0.0316 µM): 44.1%; viability, T/C (second compound 10 µM, first compound 0.0999 µM): 46.2%; viability, T/C (second compound 10 µM, first compound 0.316 µM): 47.5%
